Reference: patent US20160368919A1, “NOVEL PYRIDINE PYRAZINONES AS BET-FAMILY BROMODOMAIN INHIBITORS” (Pfizer Inc., priority 2015, published 2016)
Blank lines part the entries; values can stand above or below the compound they belong to.

How the values were obtained:
[1] = system: LPS-induced IL-6 production in human whole blood; assay: IL-6 human whole blood (HWB) assay, LPS-stimulated, HTRF detection; type: cell-based; conditions: 1 ng/ml LPS, 4 hours
Method: Compound effect on IL-6 production was determined using lipopolysaccharide (LPS)-stimulated human whole blood and an HTRF (Homogeneous Time-Resolved Fluorescence) IL-6 detection kit (Human IL6 HTRF Assay CisBio 62IL6PEC). HWB was collected by venous puncture from healthy donors, transferred to a 50 ml polypropylene tube containing sodium heparin (14.3 units per mL of HWB) and then placed in a 37° C. water bath until use. To start the assay, 80 μL of heparin-treated HWB containing 1 ng/ml of LPS (equivalent to LPS ˜EC80 with regard to stimulation of IL-6 production in HWB under these assay conditions) was added to each well of a 384-well, sterile, endotoxin-free, polypropylene plate (Greiner 781281) containing 160 nL of various concentrations of test compound (each plate also contained positive and negative control wells to define the upper and lower limits of the assay signal). The plate was then placed in a thermoshaker incubator set to 370C (Boekel 270440). The final assay concentration (FAC) of test compound ranged from 60 to 0.0006 μM and the FAC of DMSO was 0.2%. After 4 hours, the assay plate was removed from the incubator and centrifuged at 700×g for 10 minutes. 5 μL of the resulting upper plasma layer was removed from each well and diluted 1:2 with 1×Dulbecco's phosphate buffered saline (DPBS). 5 μL of this diluted plasma was then transferred to a white 384-well low volume assay plate (Greiner 784080) containing 5 μL of combined anti-IL-6-Cryptate and anti-IL-6-XL665 detection antibodies (per manufacturer's protocol). The plate was then sealed with a Top Seal (Perkin Elmer 6005185) and incubated at room temperature (RT, 20° C.). After 16-18 hrs (overnight), the HTRF assay signal was read on an Envision 2103 plate reader using a Lance Delfia Dual/Bias mirror TRF laser excitation and emission was measured at 665 nm and 615 nm respectively. The percent (%) effect was calculated for each concentration of test compound and was relative to the amount of HTRF signal produced by the positive and negative control wells contained within each assay plate. The concentrations and % effect values for test compounds were plotted versus each other with a proprietary curve fitting program using a four-parameter logistic dose response equation and the concentration of compound required for 50% effect (IC50) was determined.

BRD4 BD1 = target: T1, BRD4 BD1 (Homo sapiens, UniProt O60885); assay: BRD4 BD1 Fluorescence Polarization (FP) competition binding assay; conditions: BRD4 BD1 40 nM, probe PFI-411FP 2 nM
T1 construct: His-tagged BRD4 BD1 (44-160); made in house
Method: Compound binding to BRD4 BD1 was assessed with a FP competition binding assay. […] All assay components were diluted in 50 mM HEPES pH 7.4 containing 0.08% bovine serum albumin (assay buffer). To start the assay, 8 μL of BRD4 BD1 was added to each well of a low volume 384-well black flat bottom microtiter plate (Corning 3820) containing 4 μl of various concentrations of test compound (each plate also contained positive and negative control wells to define the upper and lower limits of the assay signal). After addition of BRD4 BD1, the assay plate was incubated at room temperature (RT, 20° C.). After 15 minutes, 4 μL of PFI-411FP was added to each well and the assay plate was placed in the dark at RT. The final assay concentration (FAC) of PFI-411FP was 2 nM, the FAC of BRD4 BD1 was 40 nM, the FAC of test compound ranged from 120 to 0.0012 μM and the FAC of DMSO was 0.4%. After 60 min, polarization values were measured with an Envision 2103 multilabel reader (Perkin Elmer) using a Cy5 dual enhanced mirror and excitation at 620 nm and emission at 688 nm. The percent (%) effect was calculated for each concentration of test compound and was relative to the amount of polarization signal produced by the positive and negative control wells contained within each assay plate. The concentrations and % effect values for test compounds were plotted versus each other with a proprietary curve fitting program using a four-parameter logistic dose response equation and the concentration of compound required for 50% effect (IC50) was determined. The Ki values of competitive inhibitors were calculated using the equation described by Nikolovska-Coleska et al. (Development and optimization of a binding assay for the XIAP BIR3 domain using fluorescence polarization. Analytical Biochemistry (2004) 332: 261-273).

SMILES: CCOc1ccccc1Cn1c(=O)c(NCCN2CCOCC2)nc2ccc(-c3c(C)noc3C)nc21 [Example 36, 6-(3,5-dimethyl-1,2-oxazol-4-yl)-4-(2-ethoxybenzyl)-2-{[2-(morpholin-4-yl)ethyl]amino}pyrido[2,3-b]pyrazin-3(4H)-one]
IC50 (BRD4 BD1): 2480 nM

SMILES: CCC[C@@H](c1ccccc1)n1c(=O)c(NCCC(=O)O)nc2ccc(-c3c(C)noc3C)nc21 [Example 52, N-{6-(3,5-dimethyl-1,2-oxazol-4-yl)-3-oxo-4-[(1S)-1-phenylbutyl]-3,4-dihydropyrido[2,3-b]pyrazin-2-yl}-beta-alanine]
IC50 [1]: 1090 nM
IC50 (BRD4 BD1): 62.7 nM

SMILES: CC[C@@H](c1ccccc1)n1c(=O)c(NCCC(=O)O)nc2ccc(N(C)C(=O)C(C)C)nc21 [Example 6, N-{6-[methyl(2-methylpropanoyl)amino]-3-oxo-4-[(1S)-1-phenylpropyl]-3,4-dihydropyrido[2,3-b]pyrazin-2-yl}-beta-alanine]
IC50 [1]: 1420 nM
IC50 (BRD4 BD1): 155 nM

SMILES: CCC(=O)N(C)c1ccc2nc(NCC(=O)NC)c(=O)n([C@@H](CC)c3ccccc3)c2n1 [Example 29, N-methyl-N-(2-{[2-(methylamino)-2-oxoethyl]amino}-3-oxo-4-[(1S)-1-phenylpropyl]-3,4-dihydropyrido[2,3-b]pyrazin-6-yl)propanamide]
IC50 [1]: 239 nM
IC50 (BRD4 BD1): 102 nM

SMILES: CC[C@@H](c1ccccc1)n1c(=O)c(NCCC(=O)O)nc2ccc(N(C)C(=O)C3COC3)nc21 [Example 27, N-{6-[methyl(oxetan-3-ylcarbonyl)amino]-3-oxo-4-[(1S)-1-phenylpropyl]-3,4-dihydropyrido[2,3-b]pyrazin-2-yl}-beta-alanine]
IC50 (BRD4 BD1): 1500 nM

SMILES: CCC(=O)N(C)c1ccc2nc(NCC(=O)NC)c(=O)n([C@H](CC)COC)c2n1 [Example 18, N-(4-[(2R)-1-methoxybutan-2-yl]-2-{[2-(methylamino)-2-oxoethyl]amino}-3-oxo-3,4-dihydropyrido[2,3-b]pyrazin-6-yl)-N-methylpropanamide]
IC50 (BRD4 BD1): 4190 nM

SMILES: CCC(=O)N(C)c1ccc2nc(NCCC(=O)O)c(=O)n(C3(C4CCCC4)CC3)c2n1 [Example 24, N-{4-(1-cyclopentylcyclopropyl)-6-[methyl(propanoyl)amino]-3-oxo-3,4-dihdropyrido[2,3-b]pyrazin-2-yl}-beta-alanine]
IC50 (BRD4 BD1): 1580 nM

SMILES: Cc1noc(C)c1-c1ccc2nc(NCCC(=O)O)c(=O)n(C3CCOCC3)c2n1 [Example 49, N-[6-(3,5-dimethyl-1,2-oxazol-4-yl)-3-oxo-4-(tetrahydro-2H-pyran-4-yl)-3,4-dihydropyrido[2,3-b]pyrazin-2-yl]-beta-alanine]
IC50 (BRD4 BD1): 4870 nM

SMILES: CC[C@H](c1ccccc1)n1c(=O)c(NCCN2CCOCC2)nc2ccc(-c3c(C)noc3C)nc21 [Example 38, 6-(3,5-dimethyl-1,2-oxazol-4-yl)-2-{[2-(morpholin-4-yl)ethyl]amino}-4-[(1R)-1-phenylpropyl]pyrido[2,3-b]pyrazin-3(4H)-one]
IC50 (BRD4 BD1): 532 nM

SMILES: CC[C@@H](c1ccccc1)n1c(=O)c(NCCC(=O)O)nc2ccc(N(C)C(=O)C3CC(F)(F)C3)nc21 [Example 26, N-(6-{[(3,3-difluorocyclobutyl)carbonyl](methyl)amino}-3-oxo-4-[(1S)-1-phenylpropyl]-3,4-dihydropyrido[2,3-b]pyrazin-2-yl)-beta-alanine]
IC50 (BRD4 BD1): 7590 nM

SMILES: Cc1noc(C)c1-c1ccc2nc(NCCN3CCOCC3)c(=O)n(Cc3ccccc3)c2n1 [Example 37, 4-benzyl-6-(3,5-dimethyl-1,2-oxazol-4-yl)-2-{[2-(morpholin-4-yl)ethyl]amino}pyrido[2,3-b]pyrazin-3(4H)-one]
IC50 (BRD4 BD1): 474 nM

SMILES: CC[C@H](COC)n1c(=O)c(NCCC(=O)O)nc2ccc(N(C)C(C)=O)nc21 [Example 16, N-{6-[acetyl(methyl)amino]-4-[(2R)-1-methoxybutan-2-yl]-3-oxo-3,4-dihydropyrido[2,3-b]pyrazin-2-yl}-beta-alanine]
IC50 (BRD4 BD1): 3880 nM

SMILES: CC[C@@H](c1ccccc1)n1c(=O)c(NCCC(=O)O)nc2ccc(N(C)C(=O)C3CC(C)(C)C3)nc21 [Example 25, N-(6-{[(3,3-dimethylcyclobutyl)carbonyl](methyl)amino}-3-oxo-4-[(1S)-1-phenylpropyl]-3,4-dihydropyrido[2,3-b]pyrazin-2-yl)-beta-alanine]
IC50 (BRD4 BD1): 6370 nM

SMILES: CCN(C(C)=O)c1ccc2nc(NCCC(=O)O)c(=O)n([C@@H](C)c3ccccc3OC)c2n1 [Example 2, N-{6-[acetyl(ethyl)amino]-4-[(1S)-1-(2-methoxyphenyl)ethyl]-3-oxo-3,4-dihydropyrido[2,3-b]pyrazin-2-yl}-beta-alanine]
IC50 (BRD4 BD1): 2710 nM

The remaining compounds from weak to strong by IC50 (BRD4 BD1), led by results:

IC50 (BRD4 BD1): 10200 nM
SMILES: CCC(=O)N(C)c1ccc2nc(NCCC(=O)O)c(=O)n([C@@H]3COC[C@H]3c3ccccc3)c2n1 [Example 15, N-{6-[methyl(propanoyl)amino]-3-oxo-4-[(3S,4S)-4-phenyltetrahydrofuran-3-yl]-3,4-dihydropyrido[2,3-b]pyrazin-2-yl}-beta-alanine]

IC50 (BRD4 BD1): 4030 nM
SMILES: CCC(=O)N(C)c1ccc2nc(NCC(=O)NC)c(=O)n(C(COC)COC)c2n1 [Example 19, N-(4-(1,3-dimethoxypropan-2-yl)-2-((2-(methylamino)-2-oxoethyl)amino)-3-oxo-3,4-dihydropyrido[2,3-b]pyrazin-6-yl)-N-methylpropionamide]

IC50 [1]: 6220 nM
IC50 (BRD4 BD1): 355 nM
SMILES: CC[C@@H](COC)n1c(=O)c(NCCC(=O)O)nc2ccc(-c3c(C)noc3C)nc21 [Example 46, N-{6-(3,5-dimethyl-1,2-oxazol-4-yl)-4-[(2S)-1-methoxybutan-2-yl]-3-oxo-3,4-dihydropyrido[2,3-b]pyrazin-2-yl}-beta-alanine]

IC50 [1]: 722 nM
IC50 (BRD4 BD1): 348 nM
SMILES: CCC(=O)N(C)c1ccc2nc(NCC(=O)NC)c(=O)n([C@H](c3ccccn3)C(C)C)c2n1 [Example 30, N-methyl-N-(2-{[2-(methylamino)-2-oxoethyl]amino}-4-[(1S)-2-methyl-1-(pyridin-2-yl)propyl]-3-oxo-3,4-dihydropyrido[2,3-b]pyrazin-6-yl)propanamide]

IC50 [1]: 2680 nM
IC50 (BRD4 BD1): 251 nM
SMILES: CCC(=O)N(C)c1ccc2nc(NCCC(=O)O)c(=O)n([C@@H](CC)c3ccccn3)c2n1 [Example 11, N-{6-[methyl(propanoyl)amino]-3-oxo-4-[(1S)-1-(pyridin-2-yl)propyl]-3,4-dihydropyrido[2,3-b]pyrazin-2-yl}-beta-alanine]

IC50 [1]: 3830 nM
IC50 (BRD4 BD1): 150 nM
SMILES: CC[C@@H](c1ccccc1)n1c(=O)c(NCCC(=O)O)nc2ccc(N(C)C(=O)NC)nc21 [Example 9, N-{6-[methyl(methylcarbamoyl)amino]-3-oxo-4-[(1S)-1-phenylpropyl]-3,4-dihydropyrido[2,3-b]pyrazin-2-yl}-beta-alanine]

IC50 [1]: 366 nM
IC50 (BRD4 BD1): 149 nM
SMILES: CC[C@@H](c1ccccc1)n1c(=O)c(NCCC(=O)NC)nc2ccc(N(C)C(=O)C3CCO3)nc21 (stereo partly drawn) [Example 28, N-methyl-N-(2-{[3-(methylamino)-3-oxopropyl]amino}-3-oxo-4-[(1S)-1-phenylpropyl]-3,4-dihydropyrido[2,3-b]pyrazin-6-yl)oxetane-2-carboxamide]

IC50 [1]: 1800 nM
IC50 (BRD4 BD1): 122 nM
SMILES: CC[C@@H](c1ccccc1)n1c(=O)c(NCCC(=O)O)nc2ccc(N(C)C(=O)C3CCC3)nc21 [Example 8]
